Reference: PubChem BioAssay AID2060612 (Molecular Pharmacology Branch, DTP, NCI, 2025)

Test system: 565232-114-T-J1-PDC complex spheroid viability
Test: Anticancer human tumor 565232-114-T-J1-PDC patient-derived bladder carcinoma cell line growth inhibition [CLK]
Settings: for IC50: curve of first compound; for viability, T/C: stronger effect = lower value; active = viability on the fitted dose curve at most 10% of control; inactive = the rest
In short: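 Multi-cell-type spheroids combined patient-derived tumor cells with HUVEC endothelial cells and human mesenchymal stem cells. Paired agents were dosed in half-log steps down from about clinical Cmax, or from 10 microM where Cmax was unknown.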

[1] = second compound 0.0316 µM, first compound 0.0316 µM
[2] = second compound 0.0316 µM, first compound 0.1 µM
[3] = second compound 0.0316 µM, first compound 0.316 µM
[4] = second compound 0.0316 µM, first compound 1 µM
[5] = second compound 0.0316 µM, first compound 3.16 µM
[6] = second compound 0.0316 µM, first compound 10 µM
[7] = second compound 0.1 µM, first compound 0.0316 µM
[8] = second compound 0.1 µM, first compound 0.1 µM
[9] = second compound 0.1 µM, first compound 0.316 µM
[10] = second compound 0.1 µM, first compound 1 µM
[11] = second compound 0.1 µM, first compound 3.16 µM
[12] = second compound 0.1 µM, first compound 10 µM
[13] = second compound 0.316 µM, first compound 0.0316 µM
[14] = second compound 0.316 µM, first compound 0.1 µM
[15] = second compound 0.316 µM, first compound 0.316 µM
[16] = second compound 0.316 µM, first compound 1 µM
[17] = second compound 0.316 µM, first compound 3.16 µM
[18] = second compound 0.316 µM, first compound 10 µM
[19] = second compound 1 µM, first compound 0.0316 µM
[20] = second compound 1 µM, first compound 0.1 µM
[21] = second compound 1 µM, first compound 0.316 µM
[22] = second compound 1 µM, first compound 1 µM
[23] = second compound 1 µM, first compound 3.16 µM
[24] = second compound 1 µM, first compound 10 µM
[25] = second compound 3.16 µM, first compound 0.0316 µM
[26] = second compound 3.16 µM, first compound 0.1 µM
[27] = second compound 3.16 µM, first compound 0.316 µM
[28] = second compound 3.16 µM, first compound 1 µM
[29] = second compound 3.16 µM, first compound 3.16 µM
[30] = second compound 3.16 µM, first compound 10 µM
[31] = second compound 10 µM, first compound 0.0316 µM
[32] = second compound 10 µM, first compound 0.1 µM
[33] = second compound 10 µM, first compound 0.316 µM
[34] = second compound 10 µM, first compound 1 µM
[35] = second compound 10 µM, first compound 3.16 µM
[36] = second compound 10 µM, first compound 10 µM
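Also: spheroids exposed to compounds for 7 days before readout.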
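For viability, T/C in this document: 100% = DMSO vehicle wells with luminescence normalized to vehicle control.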

COc1ccc([C@@H](O)c2cc(-c3ncnc4cc(N5CCOCC5)ccc34)c(F)cc2Cl)nn1 + CNC(=O)c1ccc(Nc2nc(OC3CCCC3)c3c(-c4ccc5nc(C)oc5c4)c[nH]c3n2)c(OC)c1
inactive: viability, T/C [1] 87.3% | viability, T/C [2] 87.1% | viability, T/C [3] 98.5% | viability, T/C [4] 113% | viability, T/C [5] 115% | viability, T/C [6] 88.6% | viability, T/C [7] 47% | viability, T/C [8] 41.6% | viability, T/C [9] 36.9% | viability, T/C [10] 34.3% | viability, T/C [11] 34.6% | viability, T/C [12] 35.8% | viability, T/C [13] 26.4% | viability, T/C [14] 29.9% | viability, T/C [15] 27.9% | viability, T/C [16] 32% | viability, T/C [17] 24.5% | viability, T/C [18] 24.8% | viability, T/C [19] 23.8% | viability, T/C [20] 22.1% | viability, T/C [21] 19.9% | viability, T/C [22] 22.1% | viability, T/C [23] 23% | viability, T/C [24] 19.2% | viability, T/C [25] 15.7% | viability, T/C [26] 19.6% | viability, T/C [27] 17.4% | viability, T/C [28] 14.5% | viability, T/C [29] 14.9% | viability, T/C [30] 13.6% | viability, T/C [31] 19% | viability, T/C [32] 17.1% | viability, T/C [33] 14.4% | viability, T/C [34] 15.9% | viability, T/C [35] 15.2% | viability, T/C [36] 15.8%
> 10000 nM: IC50 (second compound 0.0316 µM)
< 31.6 nM: IC50 (second compound 0.1 µM) | IC50 (second compound 0.316 µM) | IC50 (second compound 1 µM) | IC50 (second compound 3.16 µM) | IC50 (second compound 10 µM)

COc1cccc2c1C(=O)c1c(O)c3c(c(O)c1C2=O)CC(O)(C(=O)CO)CC3OC1CC(N)C(O)C(C)O1 (centres undefined) + CNC(=O)c1ccc(Nc2nc(OC3CCCC3)c3c(-c4ccc5nc(C)oc5c4)c[nH]c3n2)c(OC)c1
inactive: viability, T/C [1] 96.7% | viability, T/C [2] 55.5% | viability, T/C [7] 44.4% | viability, T/C [8] 22.9% | viability, T/C [13] 21.8% | viability, T/C [14] 18.6% | viability, T/C [19] 15.9% | viability, T/C [25] 12.7% | viability, T/C [31] 13.7%
< 31.6 nM: IC50 (second compound 0.1 µM) | IC50 (second compound 0.316 µM) | IC50 (second compound 1 µM) | IC50 (second compound 3.16 µM) | IC50 (second compound 10 µM)
active: viability, T/C [3] 10% | viability, T/C [4] 0.25% | viability, T/C [5] 0.24% | viability, T/C [6] 0.28% | viability, T/C [9] 7.66% | viability, T/C [10] 0.28% | viability, T/C [11] 0.22% | viability, T/C [12] 0.23% | viability, T/C [15] 5.6% | viability, T/C [16] 0.86% | viability, T/C [17] 0.19% | viability, T/C [18] 1.3% | viability, T/C [20] 12.4% | viability, T/C [21] 3.59% | viability, T/C [22] 0.42% | viability, T/C [23] 0.14% | viability, T/C [24] 0.26% | viability, T/C [26] 9.58% | viability, T/C [27] 2.15% | viability, T/C [28] 0.1% | viability, T/C [29] 0.69% | viability, T/C [30] 0.49% | viability, T/C [32] 9.24% | viability, T/C [33] 3.57% | viability, T/C [34] 0.73% | viability, T/C [35] 1.86% | viability, T/C [36] 0.29%
115 nM: IC50 (second compound 0.0316 µM)
